Test results: patent US20050260164A1, “Gene regulation with aptamer and modulator complexes for gene therapy” (priority 2002, published 2005)

Assays:
[1] = tested on: MPTP-ablated monkeys; test: Parkinsonian clinical rating scale (CRS) in MPTP-ablated monkeys; assay type: in vivo, rhesus; conditions: diflucan continuously 3-12 mg/kg x day in animal previously treated with Lenti-GDNF
Description: Twenty young adult rhesus are initially trained 3 days per week until asymptotic performance is achieved on a hand-reach task in which the time to pick up food treats out of recessed wells is measured (M. E. Emborg, et al., J. Comp. Neurol. 401, 253 (1998); J. H. Kordower, Cell Transplant. 4, 155 (1995)). Each experimental day, monkeys receive 10 trials per hand. Once per week, monkeys are also evaluated on a modified parkinsonian clinical rating scale (CRS) to obtain a measurement of baseline performance. All monkeys then receive an injection of 3 mg MPTP-HCl into the right carotid artery, initiating a Parkinsonian state. One week later, monkeys are evaluated on the CRS. Only monkeys displaying severe hemi-Parkinsonism with the classic crooked arm posture and dragging leg on the left side continue in the study.
On the basis of CRS scores, monkeys are matched into three groups of five monkeys, which receive on that day: lentiviral vector expressing-b-galactosidase (Lenti-βgal) (group 1); Lenti-GDNF plus continuous treatment with diflucan (group 2); or Lenti-GDNF treatment alone (group 3). […]
One week following lentiviral vector treatment, monkeys begin retesting on the hand-reach task three times per week for 3 weeks per month. […] During the weeks of hand-reach testing, monkeys are also scored once per week on the CRS. […]

[2] = tested on: GDNF; test: GDNF expression in brain of MPTP-ablated monkeys (immunohistochemistry, ELISA); assay type: in vivo, rhesus
Description: After euthanasia, all monkeys are perfused with saline. The brain is removed, immersed in ice-cold saline for 10 min, and sliced on a monkey brain slicer. Slabs through the head of the caudate and putamen are punched bilaterally with a 1 mm brain punch. These punches are processed for HPLC for determination of catecholamine content. Brain punches are also homogenized in 150:1 buffer I [0.1M tris-buffered saline, pH 8.1, containing 1 mM EDTA, 1% aprotinin, 10 mg/ml leupeptin, 14 mg/ml pepstatin, 4 mM phenylmethylsulfonyl fluoride (PMSF)] for 30 sec in the ice slurry. An equal amount of buffer II (0.1 M tris-buffered saline, pH 8.1, containing 1 mM EDTA, 1% aprotinin, 10 g/ml leupeptin, 14 μg/ml pepstatin, 4 mM PMSF, and 0.5% NP-40) is then added. The tubes are shaken for 2 hours. The supernatant is collected for ELISA and protein measurements. The ELISA reaction was completed in 96-well plate (Dynatech, Chantilly, Va.) according to the ELISA manufacturer's instructions (GDNF Emax ImmunoAssay Systems Kit G3520, Promega, Madison, Wis.). The optical densities are recorded in ELISA plate reader (at 450 nm wave length; Dynatech). […] The concentrations of GDNF are calculated against six-point standard curve and then adjusted to picograms of GDNF per milligram of total protein. The total protein in each tissue lysate is measured using Bio-Rad protein assay kit (Bio-Rad, Richmond, Calif.). […]

## OC(Cn1cncn1)(Cn1cncn1)c1ccc(F)cc1F [Diflucan, Fluconazole]
[1]
  therapeutic effect in Parkinson's model monkeys: no therapeutic effect
[2]; diflucan continuously 3-12 mg/kg x day in animal previously treated with Lenti-GDNF
  GDNF expression: switched off
[2]; diflucan treated animals compared to animals where diflucan is omitted
  levels of GDNF in the brains: no significant levels of GDNF
